Measured values published in US20240383875A1, “Benzimidazole Pyridine Derivatives” (Hoffmann-La Roche Inc., priority 2022, published 2024).

Experiments:
Type in all cases: biochemical
SIK1 = SIK1 (Homo sapiens, UniProt P57059); assay: Enzymatic activity assay SIK1, RapidFire mass spectrometry (phosphorylation of CHK-peptide); conditions: RapidFire MS, inhibition of SIK1; read-out: SIK1 RF IC50
How it was run: (§1)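 Compounds (12-point, 3-fold, generally 30 μM to 170 pM) were pre-incubated 30 min at ambient temperature with SIK1 (5 nM), SIK2 (0.5 nM) or SIK3 (1.5 nM) in HEPES pH 7.0/magnesium acetate buffer. CHK-peptide (10 μM solution) and ATP (100 μM solution) were then added for 45 min before formic acid quench.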

SIK3 = SIK3 (Homo sapiens, UniProt Q9Y2K2); assay: Enzymatic activity assay SIK3, RapidFire mass spectrometry (phosphorylation of CHK-peptide); conditions: RapidFire MS, inhibition of SIK3; read-out: SIK3 RF IC50
How it was run: as §1

SIK2 = SIK2 (Homo sapiens, UniProt Q9H0K1); assay: Enzymatic activity assay SIK2, RapidFire mass spectrometry (phosphorylation of CHK-peptide); conditions: RapidFire MS, inhibition of SIK2; read-out: SIK2 RF IC50
How it was run: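 SIK2 (0.5 nM) in pH 7.0 HEPES buffer with 10 mM Mg acetate phosphorylates CHK-peptide (10 μM solution) with 100 μM ATP solution, 45 min ambient, then formic acid quench.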

Sequence of SIK2 (Q9H0K1 whole entry): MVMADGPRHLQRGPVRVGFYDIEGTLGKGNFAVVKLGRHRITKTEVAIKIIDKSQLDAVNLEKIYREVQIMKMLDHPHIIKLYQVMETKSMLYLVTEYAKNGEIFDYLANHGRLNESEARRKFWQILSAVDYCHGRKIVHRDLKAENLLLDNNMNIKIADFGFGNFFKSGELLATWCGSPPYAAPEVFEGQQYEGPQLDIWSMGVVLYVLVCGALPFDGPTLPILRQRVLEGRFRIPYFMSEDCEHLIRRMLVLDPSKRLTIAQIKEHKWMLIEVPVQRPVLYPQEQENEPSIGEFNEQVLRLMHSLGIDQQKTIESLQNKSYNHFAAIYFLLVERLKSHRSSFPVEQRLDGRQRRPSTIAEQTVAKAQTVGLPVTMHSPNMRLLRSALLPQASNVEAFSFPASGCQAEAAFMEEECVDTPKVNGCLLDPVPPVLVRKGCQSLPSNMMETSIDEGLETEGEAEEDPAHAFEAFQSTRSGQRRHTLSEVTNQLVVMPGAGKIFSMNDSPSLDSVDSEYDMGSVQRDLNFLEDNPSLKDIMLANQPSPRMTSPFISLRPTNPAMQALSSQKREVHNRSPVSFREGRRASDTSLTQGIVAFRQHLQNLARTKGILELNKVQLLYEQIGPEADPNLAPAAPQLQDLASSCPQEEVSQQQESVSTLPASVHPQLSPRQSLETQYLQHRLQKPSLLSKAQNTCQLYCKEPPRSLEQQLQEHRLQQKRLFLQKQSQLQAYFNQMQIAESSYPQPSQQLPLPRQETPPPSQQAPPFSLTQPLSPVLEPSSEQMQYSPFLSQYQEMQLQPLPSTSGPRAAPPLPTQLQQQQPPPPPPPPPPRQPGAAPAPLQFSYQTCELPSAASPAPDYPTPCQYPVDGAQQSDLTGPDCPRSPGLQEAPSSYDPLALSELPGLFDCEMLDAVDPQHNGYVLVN
Sequence of SIK3 (Q9Y2K2 whole entry): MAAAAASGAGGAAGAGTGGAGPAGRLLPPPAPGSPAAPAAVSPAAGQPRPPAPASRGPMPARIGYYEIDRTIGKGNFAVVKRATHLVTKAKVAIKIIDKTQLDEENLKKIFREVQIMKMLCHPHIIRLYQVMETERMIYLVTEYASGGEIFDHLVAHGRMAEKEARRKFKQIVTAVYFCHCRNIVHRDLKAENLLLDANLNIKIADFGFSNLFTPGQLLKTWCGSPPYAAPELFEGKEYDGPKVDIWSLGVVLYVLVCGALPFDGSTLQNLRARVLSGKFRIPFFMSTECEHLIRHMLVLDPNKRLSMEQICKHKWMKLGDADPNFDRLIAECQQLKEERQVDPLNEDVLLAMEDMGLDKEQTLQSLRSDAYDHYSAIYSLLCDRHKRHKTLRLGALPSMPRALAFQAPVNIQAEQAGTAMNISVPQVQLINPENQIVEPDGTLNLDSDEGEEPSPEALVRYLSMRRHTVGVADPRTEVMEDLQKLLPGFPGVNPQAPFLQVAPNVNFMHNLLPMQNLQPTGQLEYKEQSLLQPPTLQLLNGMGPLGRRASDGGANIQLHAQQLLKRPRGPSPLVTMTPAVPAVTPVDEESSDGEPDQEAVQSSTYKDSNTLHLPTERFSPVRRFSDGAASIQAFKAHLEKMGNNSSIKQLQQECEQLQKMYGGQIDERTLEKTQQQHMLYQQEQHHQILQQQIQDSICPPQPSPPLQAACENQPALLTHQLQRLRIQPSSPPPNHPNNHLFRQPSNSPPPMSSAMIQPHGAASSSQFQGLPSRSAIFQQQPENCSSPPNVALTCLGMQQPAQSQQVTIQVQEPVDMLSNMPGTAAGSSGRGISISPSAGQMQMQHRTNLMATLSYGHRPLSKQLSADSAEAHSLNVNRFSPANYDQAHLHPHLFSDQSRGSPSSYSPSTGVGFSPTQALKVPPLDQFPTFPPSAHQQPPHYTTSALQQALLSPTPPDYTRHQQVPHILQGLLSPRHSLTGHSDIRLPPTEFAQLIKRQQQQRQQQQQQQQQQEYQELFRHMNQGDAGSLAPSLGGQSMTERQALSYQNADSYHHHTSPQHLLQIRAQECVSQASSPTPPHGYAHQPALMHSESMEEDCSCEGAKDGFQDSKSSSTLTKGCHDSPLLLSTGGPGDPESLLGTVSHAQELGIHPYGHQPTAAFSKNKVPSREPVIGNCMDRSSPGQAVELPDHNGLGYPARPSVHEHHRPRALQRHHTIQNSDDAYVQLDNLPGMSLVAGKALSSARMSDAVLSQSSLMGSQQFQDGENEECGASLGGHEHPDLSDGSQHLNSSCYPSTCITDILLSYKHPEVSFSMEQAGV
Sequence of SIK1 (P57059 whole entry): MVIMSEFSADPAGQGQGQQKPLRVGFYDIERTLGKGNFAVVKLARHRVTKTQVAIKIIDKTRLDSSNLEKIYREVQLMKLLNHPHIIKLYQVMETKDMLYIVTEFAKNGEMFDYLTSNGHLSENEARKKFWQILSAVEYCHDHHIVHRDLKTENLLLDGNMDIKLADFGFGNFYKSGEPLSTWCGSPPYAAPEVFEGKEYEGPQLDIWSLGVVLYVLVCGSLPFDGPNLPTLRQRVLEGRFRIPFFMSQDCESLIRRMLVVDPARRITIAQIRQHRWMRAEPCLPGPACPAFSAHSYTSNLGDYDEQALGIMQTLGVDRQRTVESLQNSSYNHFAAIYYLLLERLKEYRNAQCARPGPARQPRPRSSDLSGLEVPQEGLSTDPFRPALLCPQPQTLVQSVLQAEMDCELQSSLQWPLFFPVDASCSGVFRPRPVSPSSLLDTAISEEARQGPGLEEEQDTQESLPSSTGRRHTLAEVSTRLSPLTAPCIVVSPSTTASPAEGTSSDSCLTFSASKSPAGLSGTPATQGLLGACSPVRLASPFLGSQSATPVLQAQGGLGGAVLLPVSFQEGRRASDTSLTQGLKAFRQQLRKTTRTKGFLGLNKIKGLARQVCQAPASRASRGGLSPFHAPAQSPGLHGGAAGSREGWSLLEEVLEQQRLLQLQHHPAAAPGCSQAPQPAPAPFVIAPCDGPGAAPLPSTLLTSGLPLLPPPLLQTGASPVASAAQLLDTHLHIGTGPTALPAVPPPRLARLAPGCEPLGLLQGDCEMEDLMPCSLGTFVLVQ

| IC50 (SIK1) [µM] | IC50 (SIK3) [µM] | IC50 (SIK2) [µM] | SMILES |
| --- | --- | --- | --- |
| 0.496 | 0.002 | 0.0071 | CCc1cc(C(F)F)nn1-c1nc(-n2cnc3cc(Nc4ccc(C)nn4)ccc32)ccc1C(C)O (stereo not drawn) [Example 370, 1-[2-[3-(difluoromethyl)-5-ethyl-pyrazol-1-yl]-6-[5-[(6-methylpyridazin-3-yl)amino]benzimidazol-1-yl]-3-pyridyl]ethanol] |
| 0.014 | 0.124 | 0.0151 | Cc1cc(C#N)nn1-c1nc(-n2cnc3ccc(N4CCC[C@H]4C#N)cc32)ccc1C(C)O (stereo partly drawn) [Example 341, 1-[6-[6-[(2S)-2-cyanopyrrolidin-1-yl]benzimidazol-1-yl]-3-(1-hydroxyethyl)-2-pyridyl]-5-methyl-pyrazole-3-carbonitrile] |
| 1.6 | 0.0058 | 0.0132 | Cc1ccc(Nc2ccc3c(c2)ncn3-c2ccc([C@@H](C)O)c(-n3nc(C(F)F)cc3C(F)F)n2)nn1 [Example 288, (1R)-1-[2-[3,5-bis(difluoromethyl)pyrazol-1-yl]-6-[5-[(6-methylpyridazin-3-yl)amino]benzimidazol-1-yl]-3-pyridyl]ethanol] |
| 1.07 | 1.91 | 0.818 | Cc1ccc(Nc2ccc3c(c2)ncn3-c2ccc(C(C)O)c(N3CCCS3(=O)=O)n2)nn1 (stereo not drawn) [Example 85, 1-[2-(1,1-dioxo-1,2-thiazolidin-2-yl)-6-[5-[(6-methylpyridazin-3-yl)amino]benzimidazol-1-yl]-3-pyridyl]ethanol] |
| 0.12 | 0.0011 | 0.0012 | Cc1ccc(Nc2ccc3c(c2)ncn3-c2ccc(C(C)O)c(-c3cn(CC4CCC4)nc3C)n2)nn1 (stereo not drawn) [Example 274, 1-[2-[1-(Cyclobutylmethyl)-3-methyl-pyrazol-4-yl]-6-[5-[(6-methylpyridazin-3-yl)amino]benzimidazol-1-yl]-3-pyridyl]ethanol] |
| 0.035 | 0.0175 | 0.0288 | Cc1nnc(Nc2ccc3c(c2)ncn3-c2ccc(C(C)O)c(-n3nc(C#N)cc3C)n2)o1 (stereo not drawn) [Example 103, 1-[3-(1-Hydroxyethyl)-6-[5-[(5-methyl-1,3,4-oxadiazol-2-yl)amino]benzimidazol-1-yl]-2-pyridyl]-5-methyl-pyrazole-3-carbonitrile] |
| 0.652 | 0.0819 | 0.0637 | Cc1cc(C#N)nn1-c1nc(-n2cnc3cc(N4CCN(C)CC4)ccc32)ccc1C(C)O (stereo not drawn) [Example 65, 1-[3-(1-Hydroxyethyl)-6-[5-(4-methylpiperazin-1-yl)benzimidazol-1-yl]-2-pyridyl]-5-methyl-pyrazole-3-carbonitrile] |
| 0.069 | 0.0012 | 0.0012 | Cc1ccc(Nc2ccc3c(c2)ncn3-c2ccc(C(C)O)c(-c3ccn(CC(F)(F)F)c(=O)c3F)n2)nn1 (stereo not drawn) [Example 386, 3-fluoro-4-[3-(1-hydroxyethyl)-6-[5-[(6-methylpyridazin-3-yl)amino]benzimidazol-1-yl]-2-pyridyl]-1-(2,2,2-trifluoroethyl)pyridin-2-one] |
| 0.062 | 0.0015 | 0.006 | Cc1ncc(Nc2ccc3c(c2)ncn3-c2ccc(C(C)O)c(-n3nc(C#N)cc3C)n2)cn1 (stereo not drawn) [Example 86, 1-[3-(1-Hydroxyethyl)-6-[5-[(2-methylpyrimidin-5-yl)amino]benzimidazol-1-yl]-2-pyridyl]-5-methyl-pyrazole-3-carbonitrile] |
| 0.152 | 0.358 | 0.105 | COc1cc2ncn(-c3ccc(CO)c(-c4cccc(Cl)c4)n3)c2cc1OC [Example 1, (2-(3-chlorophenyl)-6-(5,6-dimethoxy-1H-benzo[d]imidazol-1-yl)pyridin-3-yl)methanol] |
| 0.106 | 1.1 | 0.0771 | CCc1cc(C(F)F)nn1-c1nc(-n2cnc3ccc(Nc4ccc(C)nn4)cc32)ccc1C(C)O (stereo not drawn) [Example 368, 1-[2-[3-(difluoromethyl)-5-ethyl-pyrazol-1-yl]-6-[6-[(6-methylpyridazin-3-yl)amino]benzimidazol-1-yl]-3-pyridyl]ethanol] |
| 27.7 | 0.167 | 0.589 | Cc1cc(-c2nc(-n3cnc4cc(Nc5ccc(C)nn5)ccc43)ccc2C(C)O)cnn1 (stereo not drawn) [Example 135, 1-[2-(6-Methylpyridazin-4-yl)-6-[5-[(6-methylpyridazin-3-yl)amino]benzimidazol-1-yl]-3-pyridyl]ethanol] |
| 0.23 | 0.218 | 0.0606 | Cc1ccc(Nc2cc3c(cc2OC2COC2)ncn3-c2ccc(C(C)O)c(-n3nc(OC(F)F)cc3C)n2)nn1 (stereo not drawn) [Example 353, 1-[2-[3-(difluoromethoxy)-5-methyl-pyrazol-1-yl]-6-[6-[(6-methylpyridazin-3-yl)amino]-5-(oxetan-3-yloxy)benzimidazol-1-yl]-3-pyridyl]ethanol] |
| 1.74 | 0.01 | 0.059 | Cc1ccc(Nc2ccc3c(c2)ncn3-c2ccc(C(C)O)c(N3CCNC4(CC4)C3)n2)nn1 (stereo not drawn) [Example 329, 1-[2-(4,7-diazaspiro[2.5]octan-7-yl)-6-[5-[(6-methylpyridazin-3-yl)amino]benzimidazol-1-yl]-3-pyridyl]ethanol] |
| 1.09 | 0.0029 | 0.0073 | Cc1ccc(Nc2ccc3c(c2)ncn3-c2ccc(CO)c(-c3cn(CC(F)(F)F)nc3C)n2)nn1 [Example 315, [6-[5-[(6-methylpyridazin-3-yl)amino]benzimidazol-1-yl]-2-[3-methyl-1-(2,2,2-trifluoroethyl)pyrazol-4-yl]-3-pyridyl]methanol] |
| 1.02 | 0.205 | 0.5 | Cc1cc(C#N)nn1-c1nc(-n2cnc3ccc(CN4CCCS4(=O)=O)cc32)ccc1C(C)O (stereo not drawn) [Example 202, 1-[6-[6-[(1,1-Dioxo-1,2-thiazolidin-2-yl)methyl]benzimidazol-1-yl]-3-(1-hydroxyethyl)-2-pyridyl]-5-methyl-pyrazole-3-carbonitrile] |
| 0.869 | 0.0025 | 0.0211 | Cc1ccc(Nc2ccc3ncn(-c4ccc(C(C)O)c(N5CC[C@@H](C#N)C5)n4)c3c2)nn1 (stereo partly drawn) [Example 106, (3R)-1-[3-(1-Hydroxyethyl)-6-[6-[(6-methylpyridazin-3-yl)amino]benzimidazol-1-yl]-2-pyridyl]pyrrolidine-3-carbonitrile] |
| 0.158 | 0.259 | 0.0584 | COc1cc2ncn(-c3ccc([C@@H](C)O)c(-c4cccc(C#N)c4)n3)c2cc1OC [Example 38, (R)-3-(6-(5,6-Dimethoxy-1H-benzo[d]imidazol-1-yl)-3-(l-hydroxyethyl)pyridin-2-yl)benzonitrile] |
| 0.391 | 0.0018 | 0.007 | Cc1ccc(Nc2ccc3c(c2)ncn3-c2ccc(C(O)C(F)F)c(-n3nc(C#N)cc3C)n2)nn1 (stereo not drawn) [Example 198, 1-[3-(2,2-Difluoro-1-hydroxy-ethyl)-6-[5-[(6-methylpyridazin-3-yl)amino]benzimidazol-1-yl]-2-pyridyl]-5-methyl-pyrazole-3-carbonitrile] |
| 0.084 | 0.382 | 0.0508 | Cc1cc(C#N)nn1-c1nc(-n2cnc3cc(Br)c(N4CCN(C5COC5)CC4)cc32)ccc1C(C)O (stereo not drawn) [Example 190, 1-[6-[5-Bromo-6-[4-(oxetan-3-yl)piperazino]benzimidazol-1-yl]-3-(1-hydroxyethyl)-2-pyridyl]-5-methyl-pyrazole-3-carbonitrile] |
| 0.103 | 0.0013 | 0.0007 | Cc1ccc(Nc2ccc3c(c2)ncn3-c2ccc(C(C)O)c(-c3cn(CC(F)(F)F)nc3C)n2)nn1 (stereo not drawn) [Example 143, 1-[6-[5-[(6-Methylpyridazin-3-yl)amino]benzimidazol-1-yl]-2-[3-methyl-1-(2,2,2-trifluoroethyl)pyrazol-4-yl]-3-pyridyl]ethanol] |
| 0.062 | 0.0008 | 0.0022 | COc1ccc(Nc2ccc3c(c2)ncn3-c2ccc(C(C)O)c(-n3nc(C#N)cc3C)n2)nn1 (stereo not drawn) [Example 88, 1-[3-(1-Hydroxyethyl)-6-[5-[(6-methoxypyridazin-3-yl)amino]benzimidazol-1-yl]-2-pyridyl]-5-methyl-pyrazole-3-carbonitrile] |
| 0.193 | 0.155 | 0.0895 | Cc1ccc(Nc2ccc3ncn(-c4ccc(C(C)O)c(-n5nc(C(F)F)cc5C)n4)c3c2)nn1 (stereo not drawn) [Example 128, 1-[2-[3-(Difluoromethyl)-5-methyl-pyrazol-1-yl]-6-[6-[(6-methylpyridazin-3-yl)amino]benzimidazol-1-yl]-3-pyridyl]ethanol] |
| 0.316 | 0.0028 | 0.0053 | Cc1ccc(Nc2ccc3c(c2)ncn3-c2ccc(C(C)O)c(-c3cc(C(F)(F)F)ncc3C)n2)nn1 (stereo not drawn) [Example 332, 1-[6-[5-[(6-methylpyridazin-3-yl)amino]benzimidazol-1-yl]-2-[5-methyl-2-(trifluoromethyl)-4-pyridyl]-3-pyridyl]ethanol] |
| 0.127 | 0.0365 | 0.0661 | Cc1cc(C#N)nn1-c1nc(-n2cnc3ccc(NC(=O)C4CC4)cc32)ccc1C(C)O (stereo not drawn) [Example 328, N-[3-[6-(3-cyano-5-methyl-pyrazol-1-yl)-5-(1-hydroxyethyl)-2-pyridyl]benzimidazol-5-yl]cyclopropanecarboxamide] |
| 4.17 | 0.0286 | 0.225 | Cc1ccc(Nc2ccc3c(c2)ncn3-c2ccc(C(C)O)c(-c3ccnn3C3CC3(F)F)n2)nn1 (stereo not drawn) [Example 227, 1-[2-[2-(2,2-Difluorocyclopropyl)pyrazol-3-yl]-6-[5-[(6-methylpyridazin-3-yl)amino]benzimidazol-1-yl]-3-pyridyl]ethanol; formic acid] |
